In a melting point compilation (Tetko et al.; mined from patent text by program, amines drawn as free bases though some values may be those of a salt):

SMILES | melting point [°C]
CC1(C)OCC(Cn2c(=O)sc3c(=O)[nH]c(N)nc32)O1 (configuration not stated) | 222 to 225
CC(C)(C)NC(=NC#N)Nc1cnc2ccccc2c1 | 228 to 229
COc1ccc(C2(C3CCCCC3=O)CCC(=O)CC2)c2c1OCCO2 (configuration not stated) | 268 to 269
N#Cc1ccc(NC(=O)CN2CCC(Cc3ccccc3)CC2)cc1 | 120 to 124
O=C(O)C1=Cc2cc(Cl)c(Oc3ccc(Cl)cc3Br)cc2OC1C(F)(F)F (configuration not stated) | 224 to 226
CCOc1nn(Cc2ccc(OCc3nc(-c4ccccc4)oc3C)c(OC)c2)cc1CCC(=O)O | 122 to 123
COc1cc2c(c(OC(C)=O)c1)C1CCC3(C)C(O)CCC3C1CC2 (configuration not stated) | 107 to 110
CC(C)(C)OCOc1cc(NC(=O)NC(=O)c2ccc(C#N)cc2)ccc1OCC(=O)OC(C)(C)C | 161 to 162
CCOC(=O)c1cnc2c(N(C)Cc3ccccc3)cc(CN3CCOCC3)cc2c1O | 151 to 153
Fc1ccc(Nc2nc3ccccc3o2)cc1C(F)(F)F | 190 to 191
CN(CCO)Cc1ccc(-c2ccc(N3C[C@H](Cn4ccnn4)OC3=O)cc2F)cn1 | 137
COC(=O)c1ccc(/C=C(\C)c2ccc3c(c2)N(C)CCN3C)cc1 | 91 to 93
CC(C(O)=S)c1sc(S(N)(=O)=O)cc1[N+](=O)[O-] (configuration not stated) | 154 to 155
CCCN(c1ccccc1)c1nc(=O)c2cccnc2s1 | 141 to 142
Cc1cc(/C=C/CC(C)N(C)C(=O)OC(C)(C)C)cnc1N (configuration not stated) | 78 to 81
COCCOc1cc(N)c(Cl)cc1C(=O)O | 119 to 120
CCc1cnc(N2CCC(c3ccc4oc(-c5ccc(S(C)(=O)=O)cc5F)nc4c3)CC2)nc1 | 190 to 194
CCOC1(C)OCC(O)O1 (configuration not stated) | 86 to 87
c1ccc(COc2ccc(C3CO3)nc2)cc1 (configuration not stated) | 45 to 47.5
C=C(C)C(=O)OCCCCOc1ccc(C(=O)Cl)cc1 | 30 to 31
CCCCCCCCCCCCCCOc1ccc(C(=O)OC)cc1OCCCCCCCCCCCCCC | 50 to 51
COC(=O)c1ccc(COc2cc3c(=O)n(-c4ccc(NC(=O)OC(C)(C)C)cc4)c(C(=O)OC)c(-c4cc(OC)c(OC)c(OC)c4)c3cc2OC)cc1 | 197 to 199
CC(=O)NCc1nc(-c2ccccc2)c(-c2ccccc2)o1 | 58 to 60
O=C(O)CCNc1cc(C(c2cc(F)ccc2F)S(=O)(=O)c2ccc(Cl)cc2)c(Cl)cn1 (configuration not stated) | 200 to 205
COC(=O)[C@H](Cc1ccc(OCCN2CCCCCC2)cc1)NC(=O)[C@@H]1CCCN1S(=O)(=O)c1ccc(C)cc1 | 60 to 65
COc1cc(OC)cc(C(=O)c2ccc(OC(F)F)c(OC(F)F)c2)c1 | 60 to 62

SMILES | melting point [°C]
CC(C)=CC(C#N)NC(=O)c1cc(C)nn1C (configuration not stated) | 92.5 to 94
CCC1CC(=O)N(CCc2ccc(NC(=O)c3ccno3)cc2)N=C1c1ccc(OC)c(OC)c1 (configuration not stated) | 196
CC1=C(c2ccncc2)SC(C)C(=O)N1 (configuration not stated) | 144 to 146
O=C(Cl)c1ccc(C(c2ccc(C(=O)Cl)cc2)(C(F)(F)F)C(F)(F)F)cc1 | 96 to 97
O=C(Nc1cccc(S(=O)(=O)NCCO)c1)c1cnn2c(C(F)(F)F)cc(-c3ccc(C(F)(F)F)cc3)nc12 | 227
CCOP(=O)(/C=C/c1cn(-c2ccccc2)nc1OCc1ccc(OCc2nc(-c3cccc(C#N)c3)oc2C)c(OC)c1)OCC | 147 to 148
O=CN1CCN(C2=C(Cl)C(=O)c3nsnc3C2=O)CC1 | 191 to 194
Cc1oc(-c2ccccc2)nc1C(O)c1cc2cc(Br)ccc2o1 (configuration not stated) | 152 to 154
N#CC=Cc1ccc(Cl)c(Cl)c1 | 98.2
CCC1(CCCCN2CCN(c3ccc(Cl)cc3)CC2)C(=O)Nc2c(Cl)cc(Cl)cc21 (configuration not stated) | 152 to 154
Oc1c2c(c3nccc4c3c1CCC4)CCCC2 | 224
Cc1cc(-c2nc3ccc(N4CCOCC4)cc3c(=O)[nH]2)cc(C)c1OCCO | 280 to 281
CCC(=O)SCC(CC(=O)c1ccc(Br)cc1)C(=O)O (configuration not stated) | 122 to 123
Cc1cc2ncc(-c3ccc(C(C)(C)C)cc3)c(N)n2n1 | 218
N#CC(c1ccccc1)N1CCN(C2CCCCC2)CC1 (configuration not stated) | 79 to 81
CC1CCN(CCCC(=O)c2ccc3oc4ccc(C(=O)CCCN5CCC(C)CC5)cc4c3c2)CC1 | 72 to 73
CCN1C(=O)C(C)(C)c2ccc(C(=O)Nc3ccncc3)cc21 | 209 to 211
NC(C(=O)O)c1ccc(C(=O)O)cc1SCCc1ccccc1 (configuration not stated) | 227 to 231
CCOC(=O)C1CCN(C(=O)CCCOc2ccc3nc4[nH]c(=O)[nH]c4cc3c2)CC1 | 251 to 253
O=C(NCCCCCCOC(=O)N1CCC2(CCCC2)CC1)OC1CCN(C(=O)Oc2ccc(-c3ccccc3)cc2)CC1 | 110 to 111
Oc1ccc(N=C(C=COc2ccccc2)Oc2ccccc2)cc1 | 110
O=S(=O)(NCC(O)(c1ccccc1)c1ccc(OCc2ccccc2)cc1)c1ccccc1 (configuration not stated) | 148 to 149
O=C1NCCN(CC(=O)N2CCOCC2)C1c1cccs1 (configuration not stated) | 190 to 193
CC(=O)OC(c1ccccc1)C1CNC1=O (configuration not stated) | 96 to 97
Clc1ccc(CCC(Cn2ccnc2)OCC=Cc2ccccc2)cc1 (configuration not stated) | 115 to 116
Cn1cc(C2=C(c3c4n(c5ccccc35)CCC(C#N)C4)C(=O)NC2=O)c2ccccc21 (configuration not stated) | 312 to 313

SMILES | melting point [°C]
CC(=O)c1ccc(Cl)c2c1OC(F)(F)O2 | 40
COc1cc(CO)cnc1Cl | 60 to 63
COc1ccc2nnc3ccc(OC)cc3c2c1 | 170 to 172
CCCn1c(COCC)nc2c(N)nc3ccc(OC(=O)N4CCOCC4)cc3c21 | 193 to 196
Cc1oc2c(-n3c(=O)cc(C(F)(F)F)n(C)c3=O)ccc(Cl)c2c1C | 152 to 153
CCOC(=O)c1cc([N+](=O)[O-])c(Cl)nc1C(=O)OCC | 70 to 72
NCCNc1ccc(NCCO)cc1[N+](=O)[O-] | 112
CCOc1noc2c1CN(C(=O)OC)CCC2 | 51.5 to 52
CCn1cc(C(=O)OC)c(=O)c2cc(F)c(N3CCNCC3)cc21 | 179 to 181
CCCn1ccnc(S(=O)(=O)Cc2ccc(Cl)cc2)c1=O | 125 to 128
CNC(=O)C(Cc1ccccc1)NC(=O)C(CC(C)C)C(S)CC(=O)OC (configuration not stated) | 169 to 171
CCNC(=O)Nc1nc2cc(-c3cccnc3)cc(N3CCC(O)C3)n2n1 (configuration not stated) | 296 to 298
CC1(C)COC(C(=O)/C=C/[C@@H]2[C@H]3CC(=O)O[C@H]3C[C@H]2OC(=O)c2ccccc2)OC1 | 141
C=Cc1ccc2c(c1)c(=O)c(C(=O)NCc1ccc(Cl)cc1)cn2C | 193 to 196
COC(=O)c1cccc(CNC(C)=O)c1C(=O)OC | 177 to 179
CCn1c(C)nc2c(C(=O)OC)c(C(=O)OC)ccc21 | 127 to 128
Cc1ccc(/C=C/c2c(C(C)C)nc(C(C)C)c(CO)c2-c2ccc(F)cc2)cc1 | 131 to 133
COc1c(C)c(C)c(O)c(C)c1CN(C)CCOc1cc(C)ccc1C(C)C | 75 to 77
O=C1NCCc2c(-c3cccc(Oc4ccc(F)cc4)c3)[nH]c3cccc1c23 | 240 to 241
O=Cc1ccc2oc3ncccc3c(=O)c2c1 | 233 to 235
CCOC(=O)c1c(CC(=O)O)n(-c2ccc(OC(C)C)cc2)c2ccc(Oc3ccc(CCl)cn3)cc12 | 153 to 155
CCOC(=O)C1C(=O)Cc2ccccc21 (configuration not stated) | 58 to 61
ClC(Cl)=Cc1sc(-c2ccccc2)cc1-c1ccccc1 | 111 to 113
Clc1ccc2onc(Cn3ccnc3)c2c1 | 100 to 102
CCCCCCc1ccc(-n2c(-c3ccc(C)cc3)cc(OC)c2-c2ccc(C)cc2)cc1 | 128 to 130
CC1=C(C(=O)OC(C)(C)C)C(c2ccc(F)cc2)C(C(=O)OC(C)(C)C)=C(C)N1 | 149 to 150

SMILES | melting point [°C]
CC(=O)n1nc(-c2nc3ccccc3o2)oc1=O | 231 to 232
CC(=O)OC[C@@H]1C=C[C@H](n2cnc3c(=O)[nH]c(N)nc32)C1 | 247 to 249
CSc1ccc(C(=O)N2CC2C#N)nn1 (configuration not stated) | 97 to 100
CC(C)(C)CC(C)(C)NCC(O)COc1ccccc1C(=O)Nc1cccc2[nH]ccc12 (configuration not stated) | 140
CCc1nc(-c2ccc(OCCn3ccnc3)cc2)no1 | 81 to 82
Cc1cccc(C)c1CNc1cc(C2=NCCN2C)cc2c1nc(C)n2C | 118 to 119
Nc1c(Cl)cc(Cl)c(CCC(=O)O)c1Cl | 145
CNC(=S)N1CCN=C1COc1cccc(C)c1C | 100
COC(=O)c1cc(O)cc(OC)c1 | 85 to 86
CC(C)NC(=O)Oc1ccccc1 | 81 to 82
C=C(Sc1ccc(C(C)(C)C)cc1)S(=O)(=O)c1ccc(Cl)cc1 | 74 to 79
Cc1c(C=NO)c2ccccc2n1C(=O)c1ccc(Cl)cc1 | 152
CN1CCC(N(C2CC2)S(=O)(=O)c2ccc(Nc3nccc(Nc4ccc(F)cc4)n3)cc2)CC1 | 218
COC(=O)C=Cc1ccc2c(c1)OCCO2 | 66 to 68
COc1ccn2nc(-c3ccccc3)c(-c3ccc(=O)n(C4CCCN(C)C4)n3)c2c1 (configuration not stated) | 179 to 180
O=C(CN1CCN(c2ccncc2)CC1)c1ccc(CC(O)=S)cc1 | 240 to 244
CCn1cc(C(=O)O)c(=O)c2cnc(N3CCN(c4ccccc4)CC3)nc21 | 247 to 248
CS(=O)CC(=O)c1ccon1 (configuration not stated) | 164 to 166
COC1=C(OC)C(=O)C(CCC(=O)NCC(=O)O)=C(C)C1=O | 128 to 130
c1ccc(CN2C[C@@H]3SCCC(c4ccccc4)(c4ccccc4)[C@@H]3C2)cc1 (racemic) | 130
CCOC(=O)COc1cccc(C(NC(C)=O)(C(=O)OCC)C(=O)OCC)c1 | 98.5 to 102
Cc1nc2cc(Cl)ccc2c2ccccc12 | 129 to 131
COc1ccc(CCN2CCC(C(O)(c3ccccc3)c3nc4ccccc4s3)CC2)cc1 (configuration not stated) | 67 to 70
CCCc1c(OCCCCCOc2ccc3c(=O)cc(C(=O)OCC)oc3c2CCC)ccc(C(C)=O)c1O | 90 to 91
